# Laboratory results taken from patent US12454529B2, “Piperazine cyclic ureas” (SIRONAX LTD., priority 2020, dated 2025).
# System: HT-29 cells
# Assay: HT-29 cell necrosis/necroptosis inhibition (TNF-α + SMAC mimetic + zVAD-FMK; CellTiter-Glo cell viability)
# Format: cell-based
# Conditions: Homo sapiens; HT-29 cells, TNF-α 10 ng/ml + SMAC mimetic 6 μM + zVAD-FMK 10 μM, 20 hours; geometric mean, 10 points in duplicate; read-out: EC50 (Cell activity; Necrosis/Necroptosis Inhibitory Activity, Compounds 1-142)
# Outline: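 Necroptosis was driven by TNF-α 10 ng/ml plus SMAC mimetic 6 μM and zVAD-FMK 10 μM in serum-free medium, with compounds as a 10-point threefold titration. After 20 h at 37 °C, ATP-based luminescence was read; EC50 values are geometric means of duplicate curves.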
row,Compound,EC50 [nM]
1,"Cc1n[nH]nc1-c1nc(N2CCN(C(=O)N3N=CC[C@H]3c3cc(F)cc(C#N)c3)CC2)ncc1F [Compound 80, (S)-3-fluoro-5-(1-(4-(5-fluoro-4-(5-methyl-2H-1,2,3-triazol-4-yl)pyrimidin-2-yl)piperazine-1-carbonyl)-4,5-dihydro-1H-pyrazol-5-yl)benzonitrile]",0.1 to 100
2,"O=C(N1CCN(c2ncc(F)c(-c3cnn(CCO)c3)n2)CC1)N1N=CC[C@H]1c1cc(F)cc(F)c1 [Compound 60, (S)-(5-(3,5-difluorophenyl)-4,5-dihydro-1H-pyrazol-1-yl)(4-(5-fluoro-4-(1-(2-hydroxyethyl)-1H-pyrazol-4-yl)pyrimidin-2-yl)piperazin-1-yl)methanone]",0.1 to 100
3,"CCOC(=O)c1nc(C)n(-c2nc(N3CCN(C(=O)N4N=CC[C@H]4c4cc(F)cc(C#N)c4)CC3)ncc2F)n1 [Compound 129, ethyl (S)-1-(2-(4-(5-(3-cyano-5-fluorophenyl)-4,5-dihydro-1H-pyrazole-1-carbonyl)piperazin-1-yl)-5-fluoropyrimidin-4-yl)-5-methyl-1H-1,2,4-triazole-3-carboxylate]",0.1 to 100
4,"Cc1nc(C)n(-c2nc(N3CCN(C(=O)N4N=CC[C@H]4c4cc(F)cc(C#N)c4)CC3)ncc2F)n1 [Compound 47, (S)-3-(1-(4-(4-(3,5-dimethyl-1H-1,2,4-triazol-1-yl)-5-fluoropyrimidin-2-yl)piperazine-1-carbonyl)-4,5-dihydro-1H-pyrazol-5-yl)-5-fluorobenzonitrile]",0.1 to 100
5,"Cc1nnc(-c2nc(N3CCN(C(=O)N4N=CC[C@H]4c4cc(F)cc(C#N)c4)CC3)ncc2F)s1 [Compound 64, (S)-3-fluoro-5-(1-(4-(5-fluoro-4-(5-methyl-1,3,4-thiadiazol-2-yl)pyrimidin-2-yl)piperazine-1-carbonyl)-4,5-dihydro-1H-pyrazol-5-yl)benzonitrile]",0.1 to 100
6,Cc1nc(C)n(-c2nc(N3CCN(C(=O)N4N=CC[C@H]4c4cc(F)cc(F)c4)CC3)ncc2F)n1 [Compound 46],0.1 to 100
7,"COc1cc(-c2nc(N3CCN(C(=O)N4N=CC[C@H]4c4cc(F)cc(F)c4)CC3)ncc2F)nc(OC)n1 [Compound 19, (S)-(5-(3,5-difluorophenyl)-4,5-dihydro-1H-pyrazol-1-yl)(4-(5-fluoro-2′,6′-dimethoxy-[4,4′-bipyrimidin]-2-yl)piperazin-1-yl)methanone]",0.1 to 100
8,"Cc1nn(CCO)c(C)c1-c1nc(N2CCN(C(=O)N3N=CC[C@H]3c3cc(F)cc(F)c3)CC2)ncc1F [Compound 118, (S)-(5-(3,5-difluorophenyl)-4,5-dihydro-1H-pyrazol-1-yl)(4-(5-fluoro-4-(1-(2-hydroxyethyl)-3,5-dimethyl-1H-pyrazol-4-yl)pyrimidin-2-yl)piperazin-1-yl)methanone]",0.1 to 100

# Same assay, conditions: Homo sapiens; HT-29 cells, TNF-α 10 ng/ml + SMAC mimetic 6 μM + zVAD-FMK 10 μM, 20 hours; geometric mean, 10 points in duplicate; read-out: EC50 (Cell activity; Necrosis/Necroptosis Inhibitory Activity, Compounds 143-323)
row,Compound,EC50 [nM]
1,"CCS(=O)(=O)Nc1c(C)nn(-c2nc(N3CCN(C(=O)N4N=CC[C@H]4c4cc(F)cc(C#N)c4)CC3)ncc2F)c1C [Compound 194, (S)—N-(1-(2-(4-(5-(3-cyano-5-fluorophenyl)-4,5-dihydro-1H-pyrazole-1-carbonyl)piperazin-1-yl)-5-fluoropyrimidin-4-yl)-3,5-dimethyl-1H-pyrazol-4-yl)ethanesulfonamide]",0.1 to 100
2,"Cc1nnc(-c2nc(N3CCN(C(=O)N4N=CC[C@H]4c4cc(F)cc(C#N)c4)CC3)ncc2F)o1 [Compound 188, (S)-3-fluoro-5-(1-(4-(5-fluoro-4-(5-methyl-1,3,4-oxadiazol-2-yl)pyrimidin-2-yl)piperazine-1-carbonyl)-4,5-dihydro-1H-pyrazol-5-yl)benzonitrile]",0.1 to 100
3,"Cc1nn(-c2nc(N3CCN(C(=O)N4N=CC[C@H]4c4cc(F)cc(C#N)c4)CC3)ncc2F)c(C)c1C#N [Compound 275, (S)-1-(2-(4-(5-(3-cyano-5-fluorophenyl)-4,5-dihydro-1H-pyrazole-1-carbonyl)piperazin-1-yl)-5-fluoropyrimidin-4-yl)-3,5-dimethyl-1H-pyrazole-4-carbonitrile]",0.1 to 100
4,"Cc1nc(C(F)(F)F)nn1-c1nc(N2CCN(C(=O)N3N=CC[C@H]3c3cc(F)cc(C#N)c3)CC2)ncc1F [Compound 207, (S)-3-fluoro-5-(1-(4-(5-fluoro-4-(5-methyl-3-(trifluoromethyl)-1H-1,2,4-triazol-1-yl)pyrimidin-2-yl)piperazine-1-carbonyl)-4,5-dihydro-1H-pyrazol-5-yl)benzonitrile]",0.1 to 100
5,Cc1nc(C(=O)O)nn1-c1nc(N2CCN(C(=O)N3N=CC[C@H]3c3cc(F)cc(C#N)c3)CC2)ncc1F [Compound 190],1000 to 10000
6,"Cc1ncn(-c2nc(N3CCN(C(=O)N4N=CC[C@H]4c4cccc(F)c4)CC3)ncc2F)n1 [Compound 310, (S)-(4-(5-fluoro-4-(3-methyl-1H-1,2,4-triazol-1-yl)pyrimidin-2-yl)piperazin-1-yl)(5-(3-fluorophenyl)-4,5-dihydro-1H-pyrazol-1-yl)methanone]",0.1 to 100
7,"Cc1nc(C)n(-c2nc(N3CCN(C(=O)N4N=CCC4c4ncccc4Cl)CC3)ncc2F)n1 (stereo not drawn) [Compound 189, (5-(3-chloropyridin-2-yl)-4,5-dihydro-1H-pyrazol-1-yl)(4-(4-(3,5-dimethyl-1H-1,2,4-triazol-1-yl)-5-fluoropyrimidin-2-yl)piperazin-1-yl)methanone]",0.1 to 100
8,"Cc1cnn(C)c1-c1ccc(F)c(N2CCN(C(=O)N3N=CCC3c3ccccn3)CC2)n1 (stereo not drawn) [Compound 297, (4-(6-(1,4-dimethyl-1H-pyrazol-5-yl)-3-fluoropyridin-2-yl)piperazin-1-yl)(5-(pyridin-2-yl)-4,5-dihydro-1H-pyrazol-1-yl)methanone]",0.1 to 100
9,"Cc1nc(C)n(-c2nc(N3CCN(C(=O)N4N=CCC4c4cc(Br)cc(F)c4F)CC3)ncc2F)n1 (stereo not drawn) [Compound 237, (5-(5-bromo-2,3-difluorophenyl)-4,5-dihydro-1H-pyrazol-1-yl)(4-(4-(3,5-dimethyl-1H-1,2,4-triazol-1-yl)-5-fluoropyrimidin-2-yl)piperazin-1-yl)methanone]",0.1 to 100
10,"Cc1nc(C)n(-c2nc(N3CCN(C(=O)N4N=CCC4c4cnc(C)s4)CC3)ncc2F)n1 (stereo not drawn) [Compound 291, (4-(4-(3,5-dimethyl-1H-1,2,4-triazol-1-yl)-5-fluoropyrimidin-2-yl)piperazin-1-yl)(5-(2-methylthiazol-5-yl)-4,5-dihydro-1H-pyrazol-1-yl)methanone]",0.1 to 100
11,"Cn1ncnc1-c1nc(N2CCN(C(=O)N3N=CC[C@H]3c3cc(F)cc(C#N)c3)CC2)ncc1Cl [Compound 166, (S)-3-(1-(4-(5-chloro-4-(1-methyl-1H-1,2,4-triazol-5-yl)pyrimidin-2-yl)piperazine-1-carbonyl)-4,5-dihydro-1H-pyrazol-5-yl)-5-fluorobenzonitrile]",0.1 to 100
12,"Cc1cnc([C@@H]2CC=NN2C(=O)N2CCN(c3ncc(F)c(-c4ncnn4C)n3)CC2)s1 [Compound 318, (S)-(4-(5-fluoro-4-(1-methyl-1H-1,2,4-triazol-5-yl)pyrimidin-2-yl)piperazin-1-yl)(5-(5-methylthiazol-2-yl)-4,5-dihydro-1H-pyrazol-1-yl)methanone]",0.1 to 100
13,"Cc1c(N)nn(C)c1-c1nc(N2CCN(C(=O)N3N=CC[C@H]3c3cc(F)cc(C#N)c3)CC2)ncc1F [Compound 153, (S)-3-(1-(4-(4-(3-amino-1,4-dimethyl-1H-pyrazol-5-yl)-5-fluoropyrimidin-2-yl)piperazine-1-carbonyl)-4,5-dihydro-1H-pyrazol-5-yl)-5-fluorobenzonitrile]",0.1 to 100
